Data set [1] has as its target T1, 5-HT2A receptor (Homo sapiens (Human), UniProt P28223). The data set is described as follows: Radioligand-receptor binding assay, 5-HT2A receptor ([3H]-Ketanserin). The following applies: [3H]-Ketanserin 2 nM, human 5-HT2A receptor membrane; read-out: 5HT-2A binding activity IC50. How it is done:
Determination of the Binding Ability of the Compounds of the Present Invention to 5-HT2A Receptor
The objective of this test example is to determine the affinity of the compounds for 5-HT2A receptor.
Assay buffer: 50 mM Tris-HCl pH 7.4, 4 mM CaCl2); wash solution: 50 mM Tris-HCl pH 7.4, stored at 4° C.; 0.5% PEI solution: 0.5 g PEI dissolve in 100 mL ddH2O, 4° C. storage of spare.
5 μL of the test compounds (0.005 nM to 100 nM, 10 concentrations in total) and 100 μL of buffer were added to a 96-well assay plate. 1.5 μL of cell membrane and 300 L of buffer were added to each well. The plate was shaken at 600 rpm for 5 min. A mixed solution of 100 μL of buffer and [^3H]-Ketanserin (the final concentration was 2 nM) was added to each well. The plate was shaken at 600 rpm for 5 min, and incubated at 27° C. for 30 min. The […]-96 GF/B filter plate pre-incubated with 0.5% PEI for 1 h was washed twice with the buffer (1 mL/well). The cell membrane suspension was added to the […]-96 GF/B filter plate, washed 4 times, and incubated at 55° C. for 10 min. 40 μL of ULTIMA GOLD was added to each well, and liquid scintillation counting was carried out.
(§1) The CPM (Counts per minute) values were determined by TopCount. […] The 10 concentrations of the compound were from 100 nM to 0.005 nM after 3-fold dilution of the reaction system. The percent inhibition rate and ten-point concentration data were fitted to the parametric nonlinear logistic equation by using GraphPad prism to calculate the IC50 values of the compound.

A short description of data set [2]: Pharmacokinetic assay in Balb/c mice (plasma and brain tissue). The data set is classed as in vivo. The settings on record: p.o. 5 mg/kg; for AUC(0-t) / AUC(0-inf) / Cmax / MRT / half-life: male, Balb/c, mouse, po; for AUC(0-t): read-out: Area under curve AUC0-t; for AUC(0-inf): read-out: Area under curve AUC0-∞; for Cmax: read-out: Plasma concentration Cmax; for MRT: read-out: Average residence time MRT; for half-life: read-out: Half life t1/2 (converted). As for the experimental part: III. Pharmacokinetic Assay in Balb/c Mice
Balb/c mice were used as test animals. The pharmacokinetic behavior of the compounds of Examples of the present invention was studied in mouse body (plasma and brain tissue) by orally administration at a dose of 5 mg/kg.
Male Balb/c mice (12 mice per group), purchased from Shanghai Jiesijie Laboratory Animal Co., LTD, with Certificate No.: SCXK (Shanghai) 2013-0006 N0.311620400001794. • 2.3 Formulation of the preparation: […]
The test compound was dissolved in 0.5% CMC-Na (1% Tween80) by sonication to formulate a clear solution or homogeneous suspension. • 2.4 Administration:
After an overnight fast, male Balb/c mice (12 mice per group) were administered p.o. with the test compound at a dose of 5 mg/kg and a volume of 10 mL/kg. • 2.5 Sample collection:
0.2 mL of blood was taken from the heart of the mouse before administration and at 1, 2, 4, 8 and 24 hours after administration, and the mice were sacrificed with CO2. The samples were stored in EDTA-K2 tubes, and centrifuged for 6 minutes at 4° C., 6000 rpm to separate the plasma. The plasma samples were stored at −80° C. Whole brain tissue was taken out, weighed, placed in a 2 mL centrifuge tube, and stored at −80° C. • 2.6 Sample process:
1) 160 μL of acetonitrile was added to 40 μL of the plasma sample for precipitation, and then the mixture was centrifuged at 3500×g for 5 to 20 minutes.
2) 90 μL of acetonitrile containing internal standard (100 ng/mL) was added to 30 μL of the plasma and brain homogenate sample for precipitation, and then the mixture was centrifuged at 13000 rpm for 8 minutes.
3) 70 μL of water was added to 70 μL of the treated supernatant and mixed by vortex for 10 minutes. 20 μL of the solution was taken to analyze the concentration of the test compound by LC/MS/MS. LC/MS/MS analytical instrument: AB Sciex API 4000 Qtrap. • 2.7 Liquid chromatography analysis: • Liquid chromatography condition: Shimadzu LC-20AD pump • Chromatographic column: Agilent ZORBAX XDB-C18 (50×2.1 mm, 3.5 μm); Mobile phase: Eluent A was 0.1% formic acid in water, and Eluent B was acetonitrile • Flow rate: 0.4 mL/min • Elution time: 0-4.0 minutes the eluent is as follows:
The main parameters of pharmacokinetics were calculated by WinNonlin 6.1.

The target of data set [3] is Human Dopamine D3 Receptor (Homo sapiens (Human), UniProt P35462). The data set is described as follows: Radioligand-receptor binding assay, dopamine D3 receptor ([3H]-methylspiperone). The following applies: [3H]-methylspiperone 0.5 nM, human D3 receptor membrane. As for the experimental part: Determination of the Binding Ability of the Compounds of the Present Invention to Dopamine D3 Receptor
Human Dopamine D3 Receptor, sequence (P35462 whole entry): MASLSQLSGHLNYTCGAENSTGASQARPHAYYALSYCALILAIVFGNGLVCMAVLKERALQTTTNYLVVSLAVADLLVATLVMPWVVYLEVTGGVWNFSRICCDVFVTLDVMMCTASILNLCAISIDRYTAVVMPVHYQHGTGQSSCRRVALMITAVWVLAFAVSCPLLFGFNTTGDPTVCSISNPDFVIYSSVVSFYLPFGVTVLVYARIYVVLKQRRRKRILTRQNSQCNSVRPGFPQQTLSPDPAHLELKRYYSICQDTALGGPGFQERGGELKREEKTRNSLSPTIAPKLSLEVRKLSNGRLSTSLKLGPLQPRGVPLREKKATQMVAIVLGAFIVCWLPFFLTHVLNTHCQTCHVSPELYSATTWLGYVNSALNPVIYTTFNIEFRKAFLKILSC
The objective of this test example is to determine the affinity of the compounds for dopamine D3 receptor.
Assay buffer: 50 mM Tris-HCl pH 7.4, 10 mM MgCl2; wash solution: 50 mM Tris-HCl pH 7.4, stored at 4° C.; 0.5% PEI solution: 0.5 g PEI dissolve in 100 mL ddH2O, 4° C. storage of spare.
5 μL of the test compounds (0.005 nM to 100 nM, 10 concentrations in total) and 100 μL of buffer were added to a 96-well assay plate. 1 μL of cell membrane and 300 μL of buffer were added to each well, and the plate was shaken at 600 rpm for 5 min. A mixed solution of 100 μL of buffer and [^3H]-methylspiperone (the final concentration was 0.5 nM) was added to each well. The plate was shaken at 600 rpm for 5 min, and incubated at 27° C. for 30 min. The […]-96 GF/B filter plate pre-incubated with 0.5% PEI for 1 h was washed twice with the buffer (1 mL/well). The cell membrane suspension was added to the […]-96 GF/B filter plate, washed 4 times, and incubated at 55° C. for 10 min. 40 μL of ULTIMA GOLD was added to each well, and liquid scintillation counting was carried out.
as §1

The target in data set [4] is T1, 5-HT2A receptor. As to the kind of experiment: Effect on calcium ion mobility in cells stably expressing 5-HT2A receptors (Flp-In-CHO-5HT2A, FLIPR). The class given is cell-based. The following applies: Flp-In-CHO-5HT2A cells, 5HT as agonist. How it is done: To determine the inhibitory effect of the compounds on 5-HT2A receptor.
Probenecid and BSA were added fresh on the day of the experiment.
The calcium signal values were determined by FLIPR. […] The percent inhibition rate and ten-point concentration data were fitted to the parametric nonlinear logistic equation by using GraphPad prism to calculate the IC50 values of the compound.

This is an account of results in US12459931B2, “Benzothiophene derivative regulator, preparation method therefor and use thereof” (Shanghai Hansoh Biomedical Co., Ltd., priority 2019, dated 2025).

pIC50: −log10 of the molar value. Where two headings read alike, the source gives them in different places.

T1 sequence (P28223 whole entry): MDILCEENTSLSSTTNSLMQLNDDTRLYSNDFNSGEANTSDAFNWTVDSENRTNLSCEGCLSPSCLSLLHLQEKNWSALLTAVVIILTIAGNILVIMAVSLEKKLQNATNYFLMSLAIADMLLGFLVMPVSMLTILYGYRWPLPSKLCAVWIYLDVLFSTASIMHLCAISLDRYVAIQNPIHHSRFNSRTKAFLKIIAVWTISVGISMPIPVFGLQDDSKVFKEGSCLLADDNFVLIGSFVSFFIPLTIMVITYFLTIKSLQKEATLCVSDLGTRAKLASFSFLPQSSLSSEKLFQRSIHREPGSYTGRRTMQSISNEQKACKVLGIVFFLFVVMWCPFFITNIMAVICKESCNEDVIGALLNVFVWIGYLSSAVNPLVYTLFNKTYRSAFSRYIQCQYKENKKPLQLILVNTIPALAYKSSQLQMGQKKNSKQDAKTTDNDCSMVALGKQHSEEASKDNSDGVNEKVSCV

As to `CC(C)(O)C(=O)N[C@H]1CC[C@H](CCN2CCN(c3cccc4sccc34)CC2)CC1` [Example 41, N-(Trans-4-(2-(4-(benzo[b]thiophen-4-yl)piperazin-1-yl)ethyl)cyclohexyl)-2-hydroxy-2-methylpropanamide], at 5-HT2A receptor [1], the pIC50 was 9.37. Further, in data set [2] (Brain), the Peak time tmax came to 1 h, the AUC(0-t) was 8120 ng·h/mL, the AUC(0-inf) was 13000 ng·h/mL and the Cmax was determined as 731 ng/mL. In data set [2] (Plasma), the Peak time tmax is 1 h, the AUC(0-t) came to 5210 ng·h/mL, the AUC(0-inf) came to 6370 ng·h/mL and the MRT came to 13.5 h. In data set [2] (Plasma), the half-life was 10.2 h and the Cmax was determined as 452 ng/mL. Further, the pIC50 in data set [3] is 8.99.
`O=C(N[C@H]1CC[C@H](CCN2CCN(c3cccc4sccc34)CC2)CC1)C1(O)CC1` [Example 42, N-(Trans-4-(2-(4-(benzo[b]thiophen-4-yl)piperazin-1-yl)ethyl)cyclohexyl)-1-hydroxycyclopropane-1-carboxamide]: the pIC50 at 5-HT2A receptor [1] is 9.59. Moreover, in data set [2] (Brain), the Peak time tmax is 1 h, the AUC(0-t) was 3610 ng·h/mL, the AUC(0-inf) was 3890 ng·h/mL and the Cmax is 330 ng/mL. In addition, in data set [2] (Plasma), the Peak time tmax worked out at 1 h, the AUC(0-t) came out at 4240 ng·h/mL, the AUC(0-inf) was determined as 4370 ng·h/mL and the mean residence time (MRT) worked out at 6.84 h. In data set [2] (Plasma), the half-life was 4.84 h and the Cmax worked out at 477 ng/mL. At 5-HT2A receptor [4], the pIC50 was 8.47. Besides, the pIC50 in data set [3] was 9.70.

By pIC50 is commonly meant the IC50 on a negative log10 scale, so that one unit is a factor of ten. The term MRT denotes a mean duration of stay, worked out from the concentration-time curve.
